This note sets out measurements from patent publication US8987258B2 (priority 2008, dated 2015).

For the assay, the target named is T1, SIRT1 (Homo sapiens, UniProt Q96EB6).
T1 sequence (Q96EB6 1-747): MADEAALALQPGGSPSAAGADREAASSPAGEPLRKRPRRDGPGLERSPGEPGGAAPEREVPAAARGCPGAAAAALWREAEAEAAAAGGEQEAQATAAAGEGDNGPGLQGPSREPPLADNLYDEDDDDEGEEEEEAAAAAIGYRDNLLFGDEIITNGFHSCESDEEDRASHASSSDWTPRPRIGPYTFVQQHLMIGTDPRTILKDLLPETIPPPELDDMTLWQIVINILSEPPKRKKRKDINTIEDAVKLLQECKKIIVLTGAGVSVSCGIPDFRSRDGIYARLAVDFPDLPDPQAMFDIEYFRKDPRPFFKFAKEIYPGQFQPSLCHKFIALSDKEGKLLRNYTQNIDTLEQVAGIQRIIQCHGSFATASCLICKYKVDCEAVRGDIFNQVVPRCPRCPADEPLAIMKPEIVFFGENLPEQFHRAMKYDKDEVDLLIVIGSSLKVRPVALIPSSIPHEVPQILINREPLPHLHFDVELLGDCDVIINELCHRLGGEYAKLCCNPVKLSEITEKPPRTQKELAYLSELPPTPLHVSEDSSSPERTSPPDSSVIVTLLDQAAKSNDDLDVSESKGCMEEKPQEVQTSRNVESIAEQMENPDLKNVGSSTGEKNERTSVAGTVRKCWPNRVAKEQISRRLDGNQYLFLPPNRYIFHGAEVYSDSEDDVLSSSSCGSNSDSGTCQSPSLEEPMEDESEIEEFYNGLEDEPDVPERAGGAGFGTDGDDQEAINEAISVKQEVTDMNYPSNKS
Put plainly: Mass spectrometry based SIRT1 deacetylase activation assay. The assay is classed as biochemical. Particulars: for EC1.5 μM: 0.5 μM peptide substrate, 120 μM βNAD+, 10 nM SIRT1, 25 min, 25° C.; for Emax: 25 min, mass spectrometry assay, read-out: % Fold Act. (percent maximum fold activation). An excerpt:
A mass spectrometry based assay was used to identify modulators of SIRT1 activity. The mass spectrometry based assay utilizes a peptide having 20 amino acid residues as follows: Ac-EE-K(biotin)-GQSTSSHSK(Ac)NleSTEG-K(5TMR)-EE-NH2 (SEQ ID NO: 1) wherein K(Ac) is an acetylated lysine residue and Nle is a norleucine. The peptide is labeled with the fluorophore 5TMR (excitation 540 nm/emission 580 nm) at the C-terminus. The sequence of the peptide substrate is based on p53 with several modifications. In addition, the methionine residue naturally present in the sequence was replaced with the norleucine because the methionine may be susceptible to oxidation during synthesis and purification.
The mass spectrometry assay is conducted as follows: 0.5 μM peptide substrate and 120 μM βNAD^+ is incubated with 10 nM SIRT1 for 25 minutes at 25° C. in a reaction buffer (50 mM Tris-acetate pH 8, 137 mM NaCl, 2.7 mM KCl, 1 mM MgCl2, 5 mM DTT, 0.05% BSA). Test compounds may be added to the reaction as described above. […] After the 25 minute incubation with SIRT1, 10 μL of 10% formic acid is added to stop the reaction. Reactions are sealed and frozen for later mass spec analysis. Determination of the mass of the substrate peptide allows for precise determination of the degree of acetylation (i.e. starting material) as compared to deacetylated peptide (product).
A control for inhibition of sirtuin activity is conducted by adding 1 μL of 500 mM nicotinamide as a negative control at the start of the reaction (e.g., permits determination of maximum sirtuin inhibition). A control for activation of sirtuin activity is conducted using 10 nM of sirtuin protein, with 1 μL of DMSO in place of compound, to determine the amount of deacetylation of the substrate at a given timepoint within the linear range of the assay. This timepoint is the same as that used for test compounds and, within the linear range, the endpoint represents a change in velocity.
For the above assay, SIRT1 protein was expressed and purified as follows. […] The protein was expressed by induction with 1 mM IPTG as an N-terminal His-tag fusion protein at 18° C. overnight and harvested at 30,000×g. Cells were lysed with lysozyme in lysis buffer (50 mM Tris-HCl, 2 mM Tris[2-carboxyethyl]phosphine (TCEP), 10 μM ZnCl2, 200 mM NaCl) and further treated with sonication for 10 min for complete lysis. The protein was purified over a Ni-NTA column (Amersham) and fractions containing pure protein were pooled, concentrated and run over a sizing column (Sephadex S200 26/60 global). The peak containing soluble protein was collected and run on an Ion-exchange column (MonoQ). Gradient elution (200 mM-500 mM NaCl) yielded pure protein. This protein was concentrated and dialyzed against dialysis buffer (20 mM Tris-HCl, 2 mM TCEP) overnight. The protein was aliquoted and frozen at −80° C. until further use.

The structures appear in SMILES notation. A value given as a limit tells only on which side of the number the result lay.

Regarding `O=C(Nc1cccc2c(=O)cc(-c3cccc(C(F)(F)F)c3)oc12)c1ccc(OC[C@@H](O)CO)nc1` [Compound 247], the “EC1.5 μM” value was “C (EC1.5>25 μM)” and the Emax is under 200%. The matching figures for `O=C(Nc1cccc2c(=O)cc(-c3ccccc3C(F)(F)F)oc12)c1cccnc1OCC(O)CO` (centres unmarked) [Compound 321]: “B (EC1.5 1-25 μM)” and over 200%. For `Cc1cnc(NC(=O)c2cccc3c(=O)cc(-c4ccccc4C(F)F)oc23)s1` [Compound 284] the same measures were “C (EC1.5>25 μM)” and under 200%. The matching figures for `Cc1ncoc1C(=O)Nc1cccc2c(=O)cc(-c3ccccc3C(F)(F)F)oc12` [Compound 268]: “A (EC1-5<1.0)” and over 200%. Consider `O=C(Nc1cccc2c(=O)cc(-c3c(Cl)cccc3Cl)oc12)c1cnccn1` [Compound 302], for which the “EC1.5 μM” value is on record as “B (EC1.5 1-25 μM)” and the Emax is over 200%. For `O=C(Nc1cccc2c(=O)cc(-c3ccccc3C(F)(F)F)oc12)c1cccc(N2CCCC2)n1` [Compound 323], the “EC1.5 μM” value is recorded as “A (EC1-5<1.0)” and the Emax is over 200%. The matching figures for `O=C(Nc1cccc2c(=O)cc(-c3cnccc3C(F)(F)F)oc12)c1cnccn1` [Compound 308]: “B (EC1.5 1-25 μM)” and over 200%. As to `O=C(Nc1cccc2c(=O)cc(-c3ccc(N4CCOCC4)cc3)oc12)c1cscn1` [Compound 229], the “EC1.5 μM” value was “C (EC1.5>25 μM)” and the Emax was under 200%. As to `O=C(Nc1cccc2c(=O)cc(-c3ccccc3Cl)oc12)c1cccc(N2CCCC2)c1` [Compound 329], the “EC1.5 μM” value was “A (EC1-5<1.0)” and the Emax is over 200%. Consider `O=C(Nc1cccc2c(=O)cc(-c3cccc(F)c3Cl)oc12)c1cnccn1` [Compound 298], for which the “EC1.5 μM” value is given as “B (EC1.5 1-25 μM)” and the Emax was under 200%.

With `O=C(Nc1cccc2c(=O)cc(-c3cc(F)ccc3F)oc12)c1cscn1` [Compound 293], the “EC1.5 μM” value was “C (EC1.5>25 μM)” and the Emax is under 200%. The matching figures for `CS(=O)(=O)c1ccccc1-c1cc(=O)c2cccc(NC(=O)c3ccccn3)c2o1` [Compound 241]: “B (EC1.5 1-25 μM)” and over 200%. Turning to `O=C(Nc1cccc2c(=O)cc(-c3cccnc3)oc12)c1cnccn1` [Compound 217], the “EC1.5 μM” value is listed as “C (EC1.5>25 μM)” and the Emax was under 200%. Take `O=C(Nc1nccs1)c1cccc2c(=O)cc(-c3cccc(OC(F)(F)F)c3)oc12` [Compound 210]: the “EC1.5 μM” value was “C (EC1.5>25 μM)” and the Emax was under 200%.

For `O=C(Nc1cccc2c(=O)cc(-c3ccccc3Cl)oc12)c1cccc(CN2CCCC2)n1` [Compound 327], the “EC1.5 μM” value is “A (EC1-5<1.0)” and the Emax was over 200%.

Take `O=C(Nc1cccc2c(=O)cc(-c3cccc(C(F)(F)F)c3)oc12)c1ccccn1` [Compound 225]: the “EC1.5 μM” value is “C (EC1.5>25 μM)” and the Emax was under 200%. The matching figures for `O=C(Nc1cccc2c(=O)cc(-c3c(F)cccc3Cl)oc12)c1cscn1` [Compound 297]: “B (EC1.5 1-25 μM)” and over 200%.

In the case of `Cn1cncc1C(=O)Nc1cccc2c(=O)cc(-c3ccccc3C(F)(F)F)oc12` [Compound 277], the “EC1.5 μM” value was “B (EC1.5 1-25 μM)” and the Emax was over 200%.

For the molecule `Cc1cnc(NC(=O)c2cccc3c(=O)cc(-c4ccccc4Br)oc23)s1` [Compound 236], the Emax was under 200%. Turning to `CS(=O)(=O)c1cccc(-c2cc(=O)c3cccc(NC(=O)c4cscn4)c3o2)c1` [Compound 222], the “EC1.5 μM” value is “C (EC1.5>25 μM)” and the Emax is under 200%. In the case of `O=C(Nc1cccc2c(=O)cc(-c3cccc(F)c3F)oc12)c1cnccn1` [Compound 288], the “EC1.5 μM” value was “B (EC1.5 1-25 μM)” and the Emax is under 200%.
